According to paper PMC4840125, “[^18F]tetrafluoroborate as a PET tracer for the sodium/iodide symporter: the importance of specific activity” (EJNMMI Research, 2016):

Target: T1, human sodium/iodide symporter (hNIS) (Homo sapiens, UniProt Q92911)
T1 construct: gene SLC5A5; hNIS stably transfected in HCT116 human colon carcinoma cells (HCT116-hNIS-C19)
T1 sequence (Q92911 1-643): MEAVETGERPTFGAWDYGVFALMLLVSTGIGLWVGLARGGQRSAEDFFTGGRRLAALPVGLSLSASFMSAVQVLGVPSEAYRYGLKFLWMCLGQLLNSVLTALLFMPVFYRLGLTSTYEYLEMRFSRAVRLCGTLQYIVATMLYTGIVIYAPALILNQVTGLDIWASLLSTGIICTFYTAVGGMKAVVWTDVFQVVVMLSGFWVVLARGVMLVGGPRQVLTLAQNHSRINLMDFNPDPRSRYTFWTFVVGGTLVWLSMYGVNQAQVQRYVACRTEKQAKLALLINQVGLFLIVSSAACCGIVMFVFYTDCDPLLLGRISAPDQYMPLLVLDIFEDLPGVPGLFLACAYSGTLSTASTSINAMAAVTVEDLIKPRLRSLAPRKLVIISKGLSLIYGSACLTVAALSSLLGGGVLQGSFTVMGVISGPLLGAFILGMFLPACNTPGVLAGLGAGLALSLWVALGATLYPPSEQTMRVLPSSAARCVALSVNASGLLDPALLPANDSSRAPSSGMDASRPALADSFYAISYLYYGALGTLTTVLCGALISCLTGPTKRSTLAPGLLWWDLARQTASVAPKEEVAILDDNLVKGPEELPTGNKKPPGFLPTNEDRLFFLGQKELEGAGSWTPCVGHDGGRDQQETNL
Assay: inhibition of […]BF4- uptake in hNIS-transfected cells, gamma counting
Format: cell-based

- IC50: 4.7 µM
Structure (SMILES): F[B-](F)(F)F [[19F]BF4-]
